Experimental data published in US12084479B2, “Modified antimicrobial peptide derived from an arginine-rich domain” (priority 2016, dated 2024).
Like-named read-outs stand apart in the source and are kept apart here. Where a SMILES comes first, the peptide text is derived from it. Where no end group is shown, it is not given here. [ ]: non-standard residue; d: D form.

Legend:
S. aureus = type: cell-based, Staphylococcus aureus
Method: (§1) The antimicrobial activities of HBcARD peptides were tested using a number of bacterial strains, including Pseudomonas aeruginosa Migula strains (ATCC 27853, ampicillin-resistant and ATCC 9027, ampicillin-resistant), Klebsiella pneumoniae strain (ATCC 13884), Shigella dysenteriae Xen27 (Caliper Co.), Escherichia coli strain (ATCC 25922), Staphylococcus aureus subsp. strains (ATCC 25923, methicillin-resistantATCC 29213, methicillin-resistant and ATCC 19636, methicillin-resistant) and Acinetobacter baumannii strains (ATCC 17978, ATCC 17978 CR, ATCC19606, ATCC 19606 CR, TCGH 45530 and TCGH 46709). Clinical isolates TCGH 45530 and TCGH 46709 were obtained from Tzu-Chi Buddhist General Hospital (TCGH) in Taiwan, and were identified using the Vitek system (Biomerieux Vitek, Inc., Hazelwood, MO, USA). See Chang et al. (2012), J Microbiol Immunol Infect 45:37-42 doi:10.1016/j.jmii.2011.09.019.
(§2) L- and D-HBcARD peptides were purchased from Yao-Hong Biotechnology Inc. (Taipei, Taiwan). Antimicrobial activity was determined as described. See, Chen et al., 2013. Briefly, bacteria were grown in MH broth (Difco) to mid-logarithmic phase at 37° C., and were diluted to 10^6 CFU (colony formation unit)/ml in phosphate buffer (10 mM sodium phosphate and 50 mM sodium chloride, pH 7.2). Peptides were serially diluted in the same buffer. Fifty microliters (μl) of bacteria were mixed with fifty μl of peptides at varying concentrations, followed by incubation at 37° C. for 3 hours without shaking. At the end of incubation, bacteria were placed on Mueller-Hinton broth agar plates, and allowed to grow at 37° C. overnight for measurement of minimal bactericidal concentration (MBC).
(§3) All peptides were tested in triplicate.

S. aureus ATCC 19636 = assay: Mouse sepsis model infected with S. aureus, in vivo protection efficacy; parameters: species or system ICR mice; settings: for in vivo protection efficacy, compared between peptides: mouse sepsis model, FIG. 8 (5 mg/kg) and FIG. 9 (different doses); for survival (mice protected from death): S. aureus 4×10^6 CFU/mouse i.p., monitored 7 days
Method: To investigate the in vivo protection efficacy of the 37-mer L- and D-HBcARD peptides, we performed a mouse sepsis model infected with S. aureus. ICR mice were first i.p. inoculated with S. aureus (4×10^6 CFU/mouse), followed by one single i.p. injection of L-HBcARD, D-HBcARD and PBS at two hours post-inoculation, respectively. All mice (n=10) administered with PBS died at day 1. See FIG. 4, A. At 7 days post-inoculation, 40% of mice treated with L-HBcARD (10 mg/kg) survived. See FIG. 4, A. In contrast, D-HBcARD peptide was able to achieve a much higher survival rate (60% for 5 mg/kg dose, and 100% for 10 mg/kg dose).
We compared the in vivo protection efficacy of HBcARD 150-177C peptides (28-mer) containing either D-form or L-form arginines. ICR mice (n=10/group) were ip. inoculated with S. aureus ATCC19636 (4×10^6/mouse), followed by treatment with modified peptides at two hours post-inoculation. All PBS control mice died on day 1, and only 20% of the mice treated with control peptide (150-177Q) survived. Administration of L-150-177C peptide at the dose of 5 and 10 mg/kg protected 30% and 70% mice from death, respectively. When treated with 5 mg/kg of D-150-177C, all mice (100%) survived.
Three-week old male ICR mice (19 to 21 g) were purchased from BioLASCO (Taiwan). To test the in vivo protection efficacy of the HBcARD peptides, all mice were inoculated intraperitoneally with S. aureus ATCC 19636 (4×10^6 CFU/mouse). HBc147-183 (L- or D-HBcARD) or the PBS control was administered intraperitoneally at 2 hours after bacterial inoculation, respectively. Each group contained 10 mice. Mortality was monitored daily for 7 days following the bacterial inoculation.

P. aeruginosa = type: cell-based, Pseudomonas aeruginosa
Method: as §1, §2, §3

E. coli = type: cell-based, Escherichia coli; settings: for Minimal bactericidal concentration: E. coli ATCC 25922
Method: as §1, §2, §3

K. pneumoniae = type: cell-based, Klebsiella pneumoniae
Method: as §1, §2, §3

A. baumannii = type: cell-based, Acinetobacter baumannii
Method: as §1, §2, §3

[1] = In vivo toxicity (survival, serum ALT); parameters: species or system ICR mice; settings: for serum ALT level compared with polymyxin B: day 1
Method: FIG. 7 is a set of graphs showing lower in vivo toxicity of HBcARD peptide D-150-177C in comparison with polymyxin B. At day 0, male ICR mice (5 mice/group) were ip. injected with different doses of D-150-177C peptide (20-80 mg/kg) and polymyxin B (50 mg/kg), respectively. (A) The survival rates of all groups were monitored for 7 days. (B) Serum samples collected from mice treated with D-150-177C and polymyxin B were determined for alanine aminotransferase activity (ALT) at day 1. The dash line represents the mean of ALT value (45 U/L) of ICR mice (Charles River Laboratories).
Using the sepsis mouse model, we examined the survival rates of ICR mice intraperitoneally (i.p.) injected with the 28-mer D-150-177C peptide (20-80 mg/kg body weight) and polymyxin B (a colistin-related compound) (50 mg/kg body weight). […] See FIG. 7, A. When the doses were increased to 60 and 80 mg/kg, survival rates of mice were decreased to 80% and 40%, respectively. See, FIG. 7, A. Liver injury can be detected by the serum ALT level.

[2] = 5 mg/kg single i.p. injection 2 hours post-inoculation

Question: Which MBC (S. aureus; S. aureus ATCC19636, listed as HBcARD 150-177Q) does the source give for RRRGRSPRRRTPSPRRRRSQSPRRRRSQ [150-177Q] here?
Answer: no detectable bactericidal activity

Question: And the survival (S. aureus ATCC 19636; control peptide, dose not given, treatment 2 hours post-inoculation)?
Answer: 20%

Question: Which “in vivo protection efficacy, compared between peptides” value (S. aureus ATCC 19636) does the source give for “rRrGRPrRrPPrRrRQPrRrRC ([dR]R[dR]GRP[dR]R[dR]PP[dR]R[dR]RQP[dR]R[dR]RC) [DL-dST-150-177C]” here?
Answer: remarkably improved protection efficacy compared to the 28-mers DL-150-177C and L-150-177C

Question: For RRRGRSPRRRTPSPRRRRSQSPRRRRSC [150-177C], which MBC (P. aeruginosa) is on record?
Answer: 2 µM

Question: What about the MBC (E. coli) of the same molecule?
Answer: 2 µM

Question: And the MBC (S. aureus)?
Answer: 2 µM

Question: What about the MBC (S. aureus; S. aureus ATCC19636, listed as HBcARD 150-177C) of the same molecule?
Answer: rescued the bactericidal activity

Question: And the “survival (mice protected from death)” value (S. aureus ATCC 19636; [2])?
Answer: 30%

Question: What about the “survival (mice protected from death)” value (S. aureus ATCC 19636; 10 mg/kg single i.p. injection 2 hours post-inoculation) of the same molecule?
Answer: 70%

Question: With “TVIRRRGGARASRSPRRRTPSPRRRRSQSPRRRRSQSPSANC [Woodchuck HBcARD]” as the molecule, how does the Minimal bactericidal concentration (P. aeruginosa; P. aeruginosa ATCC 9027) read?
Answer: 9.8 mg/L

Question: What about the Minimal bactericidal concentration (K. pneumoniae; K. pneumoniae ATCC 13884) of the same molecule?
Answer: 9.8 mg/L

Question: And the Minimal bactericidal concentration (E. coli)?
Answer: 19.6 mg/L

Question: What about the Minimal bactericidal concentration (A. baumannii; A. baumannii ATCC 17978) of the same molecule?
Answer: 4.9 mg/L

Question: And the Minimal bactericidal concentration (S. aureus; S. aureus ATCC19636)?
Answer: 19.6 mg/L

Question: For polymyxin B [reference compound], which “survival outcome after i.p. injection” value ([1]; 50 mg/kg body weight i.p.) is on record?
Answer: died at day one

Question: For RRRGRSPRRRTPSPRRRRC [150-168C], which MBC (S. aureus; S. aureus ATCC19636) is on record?
Answer: none of these peptides showed detectable activity

Question: With C[C@@H](O)[C@H](NC(=O)[C@@H](CCCNC(=N)N)NC(=O)[C@@H](CCCNC(=N)N)NC(=O)[C@@H](CCCNC(=N)N)NC(=O)[C@@H]1CCCN1C(=O)[C@H](CO)NC(=O)[C@@H](CCCNC(=N)N)NC(=O)CNC(=O)[C@@H](CCCNC(=N)N)NC(=O)[C@@H](CCCNC(=N)N)NC(=O)[C@H](N)CCCNC(=N)N)C(=O)N1CCC[C@H]1C(=O)N[C@@H](CO)C(=O)N1CCC[C@H]1C(=O)N[C@H](CCCNC(=N)N)C(=O)N[C@H](CCCNC(=N)N)C(=O)N[C@H](CCCNC(=N)N)C(=O)N[C@H](CCCNC(=N)N)C(=O)N[C@@H](CO)C(=O)N[C@@H](CCC(N)=O)C(=O)N[C@@H](CO)C(=O)N1CCC[C@H]1C(=O)N[C@H](CCCNC(=N)N)C(=O)N[C@H](CCCNC(=N)N)C(=O)N[C@H](CCCNC(=N)N)C(=O)N[C@H](CCCNC(=N)N)C(=O)N[C@@H](CO)C(=O)N[C@@H](CS)C(=O)O [D-150-177C, rrrGrSPrrrTPSPrrrrSQSPrrrrSC] (H-[dR][dR][dR]G[dR]SP[dR][dR][dR]TPSP[dR][dR][dR][dR]SQSP[dR][dR][dR][dR]SC-OH; N-terminus and C-terminus assumed) as the molecule, how does the survival rate ([1]; 60 mg/kg i.p., monitored 7 days) read?
Answer: 80%

Question: And the “serum ALT level compared with polymyxin B” value ([1]; 60 mg/kg, p<0.01)?
Answer: significantly higher

Question: And the survival rate ([1]; 80 mg/kg i.p., monitored 7 days)?
Answer: 40%

Question: What about the acute toxicity ([1]; 20 and 40 mg/kg i.p., monitored 7 days) of the same molecule?
Answer: no acute toxicity

Question: What about the “serum ALT level compared with polymyxin B” value ([1]; 20 to 40 mg/kg, p value insignificant) of the same molecule?
Answer: higher ALT level than polymyxin B

Question: For “RKPRGLEPRRRKVKTTVVYGRRRSKSRERRAPTPQR [Duck HBcARD]”, which Minimal bactericidal concentration (P. aeruginosa) is on record?
Answer: >70.6 mg/L

Question: And the Minimal bactericidal concentration (K. pneumoniae)?
Answer: >70.6 mg/L

Question: What about the Minimal bactericidal concentration (A. baumannii) of the same molecule?
Answer: 70.6 mg/L

Question: Which “survival (mice protected from death)” value (S. aureus ATCC 19636; [2]) does the source give for “rRrGRSPrRrTPSPrRrRSQSPrRrRSC ([dR]R[dR]GRSP[dR]R[dR]TPSP[dR]R[dR]RSQSP[dR]R[dR]RSC) [DL-150-177C]” here?
Answer: protected all S. aureus-infected mice from death

Question: What about the “in vivo protection efficacy, compared between peptides” value (S. aureus ATCC 19636) of the same molecule?
Answer: very similar protection efficacy to all-D-arginine substituted peptide D-150-177C

Question: Which results are given for “RKPRGLEPRRRKVKTTVVYGRRRSKSRGRRSSPSQR [Heron HBcARD]”?
Answer: Minimal bactericidal concentration (P. aeruginosa): >69.3 mg/L; Minimal bactericidal concentration (K. pneumoniae): >69.3 mg/L; Minimal bactericidal concentration (A. baumannii): 69.3 mg/L

Question: Which results are given for “RrRGRSPRrRTPSPRrRrSQSPRrRrSC (R[dR]RGRSPR[dR]RTPSPR[dR]R[dR]SQSPR[dR]R[dR]SC) [LD-150-177C]”?
Answer: survival (mice protected from death) (S. aureus ATCC 19636; [2]): 80%; in vivo protection efficacy, compared between peptides (S. aureus ATCC 19636): less than DL-150-177C

Question: Which MBC (S. aureus; S. aureus ATCC19636) does the source give for RRRTPSPRRRRSQSPRRRRC [157-176C] here?
Answer: none of these peptides showed detectable activity

Question: Which MBC (S. aureus; S. aureus ATCC19636) does the source give for RRRRSQSPRRRRSC [164-177C] here?
Answer: none of these peptides showed detectable activity

Question: What does the source list for “TIVRRRGGSRATRSPRRRTPSPRRRRSQSPRRRRSQSPASSNC [Bat HBcARD]”?
Answer: Minimal bactericidal concentration (P. aeruginosa; P. aeruginosa ATCC 9027): 10 mg/L; Minimal bactericidal concentration (K. pneumoniae; K. pneumoniae ATCC 13884): 5 mg/L; Minimal bactericidal concentration (E. coli): 20 mg/L; Minimal bactericidal concentration (A. baumannii; A. baumannii ATCC 17978): 2.5 mg/L; Minimal bactericidal concentration (S. aureus; S. aureus ATCC19636): 20 mg/L
